Reference: patent publication US8834855B2, “Sunscreen compositions comprising carotenoids” (Promar AS, priority 2005, dated 2014)

Experiments:
[1] = Phase distribution of carotenoids in water-ethanol/heptane extraction at different water levels; type: physicochemical; settings: room temperature, no pH adjustment
Method: (§1) Extraction is performed in a nitrogen atmosphere in equipment covered with aluminium foil. • 1. The pH of a water suspension of the microalgae P. tricornutum (14 g dry weight per liter of water) was adjusted to 8.3 and ethanol was added to a final ratio of water:ethanol=0.3:1.0. • 2. The water-ethanol solution was extracted by mixing with heptane (water-ethanol solution:heptane=1.3:1.0) for 1 hour at 20° C. • 3. The solution was separated into three phases by centrifugation (10 minutes at 3222×g): An upper heptane phase enriched in diadinoxanthin and fucoxanthin, a lower ethanol-water phase enriched in chlorophylls and degradation products of chlorophylls, and a third mid-phase with precipitated materials. The ratio of the concentration of diadinoxanthin to fucoxanthin in the water-ethanol phase was approximately 1:6. • 4. Water was added to the water-ethanol phase until a water:ethanol ratio of 0.7:1.0 was reached. This solution was extracted by a similar amount of heptane and the phases separated by centrifugation (as in step 3). Diadinoxanthin was enriched in the heptane phase (diadinoxanthin:fucoxanthin=1:1), and fucoxanthin and fucoxanthin-derivatives in the ethanol-water phase. • 5. The heptane phase was stored overnight at −20° C. to separate fucoxanthin which was separated by centrifugation as described above. (Alternatively, the precipitated material may be removed with a pipette.) • 6. The heptane phase was used for further purification of diadinoxanthin by HPLC as described hereinbefore to yield […] of the diadinoxanthin found in the starting material. Optimization
Various parameters in the above described basic method were varied to establish the effect of water concentration, pH and temperature on the isolation method.
The method was performed at room temperature without pH adjustment.

[2] = Effects of temperature on extraction for 200 minutes, water:ethanol:heptane 1:1:1, pH 11; type: physicochemical; settings: for amount in phase after extraction: 1:1:1, pH 11
[3] = Recovery of initial amount after extraction at different temperature and pH (stability); type: physicochemical
Text: (§2) Values indicated are for the amount of each compound in the indicated phase. The value in brackets indicates the % distribution between the two phases.

[4] = Irradiation absorption in an in vitro skin model (Vitro-skin, integrating sphere transmission); settings: Miglyol solvent, compared to a conventional SPF 60 sun lotion
Method: A commercial sunscreen SPF60 was used for comparison. Vitro−skin+miglyol was used as the control. Curve 1: Vitro−skin+Miglyol, 2: SPF60, 3:fucoxanthin at 2.76 mg/ml, 4:fucoxanthin at 0.55 mg/ml, 5:fucoxanthin at 0.25 mg/ml, 6:diadinoxanthin at 0.64 mg/ml, 7:diadinoxanthin at 0.13 mg/ml; and
The concentrations are given as the sum of the given compounds and their degradation products (cis-fucoxanthin and diadinochrome). Solid lines with squares—diadinoxanthin. Solid line with diamonds—fucoxanthin. Dashed lines illustrate a projected linear relationship.
The in vitro method of Springsteen was used (Springsteen et al., 1999, Analytica Chimica Acta, 380, p155-164). Vitro-skin was used as the skin simulator and Miglyol (Miglyol 812F Neutraloel CHG. 040906) was used as the solvent. The tests were performed with a Varian Cary 300 Conc UV-Visible Spectrophotometer (with an integrating sphere). Fucoxanthin and diadinoxanthin (isolated as described in Example 2) were tested at the concentrations indicated on FIG. 3.

[5] = Effects of temperature and pH on separation of diadinoxanthin from fucoxanthin (water:ethanol phase extracted with heptane); type: physicochemical
Method: as §1, §2

[6] = water:EtOH:heptane 0:1:1, heptane phase
[7] = water:EtOH:heptane 0:1:1, water-EtOH phase
[8] = water:EtOH:heptane 0.1:1:1, heptane phase
[9] = water:EtOH:heptane 0.1:1:1, water-EtOH phase
[10] = water:EtOH:heptane 0.2:1:1, heptane phase
[11] = water:EtOH:heptane 0.2:1:1, water-EtOH phase
[12] = water:EtOH:heptane 0.4:1:1, heptane phase
[13] = water:EtOH:heptane 0.4:1:1, water-EtOH phase
[14] = NaOH-buffer, pH 12.2, 50° C., Heptane phase
[15] = NaOH-buffer, pH 12.2, 50° C., Water-EtOH phase
[16] = Phosphate, pH 11, 20° C., Heptane phase
[17] = Phosphate, pH 11, 20° C., Water-EtOH phase
[18] = Phosphate, pH 11, 50° C., Heptane phase
[19] = Phosphate, pH 11, 50° C., Water-EtOH phase

SMILES | phase distribution [1, 6] [%] | phase distribution [1, 7] [%] | phase distribution [1, 8] [%] | phase distribution [1, 9] [%] | phase distribution [1, 10] [%] | phase distribution [1, 11] [%] | phase distribution [1, 12] [%] | phase distribution [1, 13] [%] | amount in phase after extraction ([2]; 20 °C, Heptane phase) | amount in phase after extraction ([2]; 20 °C, Water-EtOH phase) | amount in phase after extraction ([2]; 35 °C, Heptane phase) | amount in phase after extraction ([2]; 35 °C, Water-EtOH phase) | amount in phase after extraction ([2]; 50 °C, Heptane phase) | amount in phase after extraction ([2]; 50 °C, Water-EtOH phase) | Total present in both phases ([3]; NaOH-buffer, pH 12.2, 50° C.) | Total present in both phases ([3]; Phosphate, pH 11, 20° C.) | Total present in both phases ([3]; Phosphate, pH 11, 50° C.) | ability to absorb irradiation [4] | % distribution between the two phases [5, 14] | amount of compound in phase [5, 14] | further results
C=Cc1c(C)c2cc3nc(c4c5[n-]c(cc6nc(cc1[n-]2)C(C)=C6CC)c(C)c5C(=O)[C@@H]4C(=O)OC)[C@@H](CCC(=O)OC/C=C(\C)CCC[C@H](C)CCC[C@H](C)CCCC(C)C)[C@@H]3C.[Mg+2] [Chl a, chlorophyll a] | 45 | 55 | 100 | 0 | 93 | 7 | 100 | 0 | 3290 | 0 | 3505 | 0 | 4010 | 0 | – | – | – | – | – | – | –
CC1=C(C#C/C(C)=C/C=C/C(C)=C/C=C/C=C(C)/C=C/C=C(C)/C=C/[C@@]23O[C@]2(C)C[C@@H](O)CC3(C)C)C(C)(C)C[C@H](O)C1 [diadinoxanthin] | 12 | 88 | 93 | 7 | 6 | 94 | 22 | 78 | 1155 | 170 | 1260 | 180 | 1310 | 190 | 1440 | 1500 | 1470 | ability to absorb irradiation, particularly in the blue light range of the spectrum, but also in the upper UVA area | 100% | 1440 | stability under the temperature and pH conditions used ([3]; pH 11): stable under the conditions used; % distribution between the two phases [5, 15]: 0 (0%); amount of compound in phase [5, 15]: 0 (0%); % distribution between the two phases [5, 16]: 100%; amount of compound in phase [5, 16]: 1500; % distribution between the two phases [5, 17]: 0 (0%); amount of compound in phase [5, 17]: 0 (0%); % distribution between the two phases [5, 18]: 100%; amount of compound in phase [5, 18]: 1470; % distribution between the two phases [5, 19]: 0 (0%); amount of compound in phase [5, 19]: 0 (0%)
CC(=O)O[C@H]1CC(C)(C)C(=C=C/C(C)=C/C=C/C(C)=C/C=C/C=C(C)/C=C/C=C(\C)C(=O)C[C@@]23O[C@]2(C)C[C@@H](O)CC3(C)C)[C@](C)(O)C1 [fucoxanthin] | 7 | 93 | 49 | 51 | 2 | 98 | 3 | 97 | 1065 | 380 | 610 | 210 | 95 | 0 | 0 | 5120 | 2880 | ability to absorb irradiation, particularly in the blue light range of the spectrum, but also in the upper UVA area | 0 (0%) | 0 (0%) | stability under the temperature and pH conditions used ([3]; pH 11 to 12.2, 20 to 50° C.): more sensitive to extreme temperatures and pH; % distribution between the two phases [5, 15]: 0 (0%); amount of compound in phase [5, 15]: 0 (0%); % distribution between the two phases [5, 16]: 95%; amount of compound in phase [5, 16]: 4860; % distribution between the two phases [5, 17]: 5%; amount of compound in phase [5, 17]: 260; % distribution between the two phases [5, 18]: 95%; amount of compound in phase [5, 18]: 2745; % distribution between the two phases [5, 19]: 5%; amount of compound in phase [5, 19]: 135; stability at various temperatures ([2]; 20, 35, 50 °C, pH 11): more sensitive to higher temperatures
